Consider 15 molecules from patent EP0034481A1, “2-Methyl-5-thiazole-methylamine and carboxamide derivatives” (Grigg, Ronald Ernest, priority 1980, dated 1981).

The nature of data set [1]: Solubility in solvents (qualitative). Type of data set: physicochemical.
Data set [2] can be described thus: LD50 (acute toxicity). To be noted: in vivo.
Data set [3] has as its system Diazepam cell receptor. Put plainly: Central nervous system activity: adhesion to specific cell receptor surfaces (diazepam cell receptor). It is filed as binding. The procedure:
Various compounds of this invention have been tested for their biological activity. Peripheral activity was determined by contraction of the guinea pig ileum/frog rectus while central nervous system activity was determined by adhesion to specific cell receptor surfaces.

Data set [4] has as its system guinea pig ileum. Put plainly: Peripheral activity: contraction of the guinea pig ileum, relative to nicotine. Type of data set: cell-based. The procedure:
Peripheral activity was determined by contraction of the guinea pig ileum/frog rectus while central nervous system activity was determined by adhesion to specific cell receptor surfaces.

One may read the LD50 as the dose expected to kill half of the subjects tested. The low end stands for greater toxicity, the high end for lower toxicity.

Molecules are shown by their SMILES.

With `c1ccc(-c2ncc(CN3CCCCC3)s2)cc1` [Example 24, 2-phenyl-(5-piperidinomethyl)thiazole], in data set [1], the “soluble in dilute hydrochloric acid” value is “soluble” and the soluble in ethanol entry was “soluble”.
On to `CCN(CC)Cc1cnc(C)s1` [Example 21, 2-methyl-5-(diethylaminomethyl)thiazole], for which the LD50 in data set [2] lay in the range of 80 to 100 mg/kg. Also, in data set [1], the soluble in ethanol entry is “soluble” and the soluble in water result was “soluble”. For the same molecule, in data set [3], the “Diazepam cell receptor adhesion” value was 5.5 mM.
The molecule `Cc1ncc(CN2CCCC2)s1` [Example 18, 2-methyl-5-(pyrrolidinomethyl)thiazole] had an LD50 in data set [2] of 7 to 8 mg/kg. For the same molecule, in data set [1], the soluble in ethanol entry is listed as “soluble” and the soluble in water entry is “soluble”. Besides, the “Diazepam cell receptor adhesion” value in data set [3] was 4.4 mM.
In the case of `c1ccc(-c2ncc(CN3CCCC3)s2)cc1` [Example 17, 2-phenyl-5-(pyrroli-dinomethyl)thiazole], in data set [1], the “soluble in dilute hydrochloric acid” value was “soluble” and the soluble in ethanol result is reported as “soluble”.
Consider `Cc1nnc(C(=O)N2CCOCC2)o1` [Example 13, 5-methyl-2-(morpholinocarbonyl)oxadiazole], for which the soluble in water entry in data set [1] is “soluble”.
The molecule `Cc1ncc(CN2CCCCC2)s1` [Example 19, 2-methyl-S-(piperidinomethyl)thiazole] returned a median lethal dose (LD50) in data set [2] of 7 to 8 mg/kg. Moreover, in data set [1], the soluble in ethanol result was “soluble” and the soluble in water result is “soluble”. Moreover, the “Diazepam cell receptor adhesion” value in data set [3] worked out at 1.0 mM.
Take `Cc1ncc(C(=O)N2CCCCC2)s1` [Example 2, 2-methyl-5-(piperidincrcarbonyl)thiazole]: in data set [1], the soluble in ethanol result is “soluble” and the soluble in water result is “soluble”. For the same molecule, the “Diazepam cell receptor adhesion” value in data set [3] stood at 0.49 mM.
Turning to `Cc1ncc(C(=O)NC23CC4CC(CC(C4)C2)C3)s1` [Example 7, N-adamantyl 2-methyl-5-thiazolecarboxamide], the “Guinea Pig ileum test (% wrt nicotine)” value in data set [4] worked out at 0 % wrt nicotine. Besides, in data set [1], the “soluble in dilute hydrochloric acid” value was “soluble”, the soluble in ethanol result is recorded as “soluble” and the soluble in water entry is “soluble”.
On to `Cc1ncc(C(=O)N2CCOCC2)s1` [Example 3, 2-methyl-S-(morpholinocarbonyl)thiazole], for which, in data set [1], the “soluble in dilute hydrochloric acid” value is “soluble”, the soluble in ethanol entry is recorded as “soluble” and the soluble in water entry is recorded as “soluble”. The “Diazepam cell receptor adhesion” value in data set [3] was 1.0 mM.
Turning to `Cc1ncc(C(=O)N2CCN(C(=O)c3cnc(C)s3)CC2)s1` [Example 5, N,N'-bis(2-methyl-5-thiazolecarbonyl)piperazine], the soluble in chloroform entry in data set [1] (chloroform) is recorded as “soluble”. Moreover, in data set [1] (polyethylene glycol), the “soluble in polyethylene glycol” value is recorded as “soluble”.
As to `Cc1ncc(C(=O)N2CCCC2)s1` [Example 1, 2-Methyl-5-(pyrrolidinocarbonyl)thiazole], in data set [1], the soluble in ethanol result was “soluble” and the soluble in water result is listed as “soluble”. Also, the “Diazepam cell receptor adhesion” value in data set [3] is reported as 0.55 mM.
As for `Cc1ncc(CN2CCOCC2)s1` [Example 20, 2-methyl-5-(morpholinomethyl)thiazole], in data set [1], the “soluble in dilute hydrochloric acid” value is recorded as “soluble”, the soluble in ethanol result is on record as “soluble” and the soluble in water result is reported as “soluble”. The “Diazepam cell receptor adhesion” value in data set [3] is 11 mM.
In the case of `CCN(CC)C(=O)c1cnc(C)s1` [Example 6, N,N-diethyl 2-methyl-5-thiazolecarboxamide], in data set [1], the soluble in ethanol entry is recorded as “soluble” and the soluble in water result is recorded as “soluble”. The “Diazepam cell receptor adhesion” value in data set [3] is reported as 3.2 mM.
Turning to `Cc1nnc(C(=O)N2CCCCC2)o1` [Example 11, 2-methyl-5-(piperidinocarbonyl)oxadiazole], in data set [1], the soluble in water entry is reported as “soluble”.
The same measure, in the same setting: the value for `Cc1nnc(C(=O)N2CCCC2)o1` [Example 12, 5-methyl-2-(pyrrolidinocarbonyl)oxadiazole] was “soluble”.
